Patent US20260306500A1, “METHOD OF INHIBITING ADENOSINE TRIPHOSPHATE SECRETION, METHOD OF INHIBITING HEPATIC STELLATE CELL ACTIVATION, METHOD OF DEACTIVATING HEPATIC STELLATE CELL, METHOD OF TREATING HEPATIC FIBROSIS, METHOD OF TREATING NON-ALCOHOLIC STEATOHEPATITIS, AND METHOD OF TREATING PSORIASIS” (Kurume University, priority 2023, published 2026)

Experiments:
mouse auricle = assay: Topical solutions on imiquimod-induced psoriasis (Example 21); assay type: in vivo; settings: for degree of auricular thickening: N=2 (FIG. 44)
Procedure: On Days 1, 2, 3, 5, and 6, 62.5 mg of 5% imiquimod cream (Beselna Cream 5%) was applied to auricles of wild-type mice (IMQ) or VNUT knockout mice (VNUT KO+IMQ) to induce psoriatic symptoms. […] For a negative control, only 20% glycerin solution was applied. In IMQ+1% IMG and IMQ+0.1% IMG, 20% glycerin solution supplemented with 1% (w/v) imeglimin and 0.1% (w/v) imeglimin, respectively, was applied immediately after the imiquimod application. Further, in IMQ+1% Clo and IMQ+0.1% Clo, 20% glycerin solution supplemented with 1% (w/v) clodronate and 0.1% (w/v) clodronate, respectively, was applied immediately after the imiquimod application.

[1] = test system: macrophages (THP-1 cells); assay: ATP secretion from macrophages differentiated from THP-1 cells upon LPS stimulation; assay type: cell-based, human; settings: 10 μM, 10 μg/ml LPS, N=10 (FIG. 9)
Procedure: Human acute monocytic leukemia cells (THP-1 cells (ACTT)) were cultured in accordance with Reference D. THP-1 cells were cultured in RPMI1640 medium supplemented with 10% fetal bovine serum (FBS), 100 units/ml penicillin, and 100 μg/ml streptomycin at 37° C. in 5% CO2 for 1 day. Further, THP-1 cells were cultured in RPMI1640 medium supplemented with 1 μg/ml Escherichia coli serotype 055:B5 (manufactured by Sigma-Aldrich) and 1000 units/ml mouse IFN-γ (manufactured by R&D Systems) at 37° C. in 5% CO2 for 1 day, to allow differentiation into macrophages.
The differentiated macrophages were cultured in RPMI1640 medium supplemented with 1 mg/ml Escherichia coli serotype 055:B5 (manufactured by Sigma-Aldrich) and 1000 units/ml mouse IFN-γ (manufactured by R&D Systems) at 2.5×10^4 cells/well in a 24-well plate at 37° C. in 5% CO2 for 4 days. The medium was replaced with HBSS (manufactured by Gibco) supplemented with imeglimin or clodronate), and then LPS (10 μg/ml) was added thereto, followed by further performing incubation for 10 minutes and then collection of 200 μl of the supernatant. The supernatant was immediately treated on a heat block at 95° C. for 10 minutes, and ATP in the supernatant was quantified using an ATP assay kit−Luminescence (manufactured by Dojindo) (N=10).

[2] = test system: human epidermal keratinocytes; assay: ATP secretion from human epidermal keratinocytes promoted by ionomycin; assay type: cell-based; settings: for ATP secretion level relative to control solution (RLU ratio): 1 μM imeglimin, N=3 (FIG. 4)
Procedure: Human epidermal keratinocytes (Cryopreserved HEK, Lot 1758, Cell Applications Inc.) were cultured using an Epivita Keratinocyte Growth Medium Kit according to the manufacturer's instructions. The procedure was as follows. A supplement medium was added to a hydrocortisone-containing basal medium included in the medium preparation kit to prepare a complete medium. The medium in the dish was removed by aspiration. The cells were washed with 5 ml of BSS (Gbco), and then the BSS was removed by aspiration. After addition of 5 to 6 ml of trypsin/EDTA solution (Gbco), the dish was incubated at 37° C. for 2 minutes. After addition of 5 ml of trypsin neutralization solution, the resulting cell suspension was transferred into two 15-ml Falcon tubes, and centrifuged at 200×g for 5 minutes. The supernatant was removed by aspiration, and the pelleted cell cluster was suspended in 2 ml of the medium at 4.5×10^5 cells/ml. An aliquot of the resulting cell suspension was cryopreserved, while another aliquot was cultured and subjected to measurement.
ATP secretion by human epidermal keratinocytes (hereinafter referred to as “keratinocytes”) was measured. Regarding control solutions, Krebs-Ringer HEPES supplemented with 0.2% BSA and 25 mM glucose (hereinafter also referred to as “Krebs/Iono(−)”) was used as a negative control, and a solution prepared by adding 5 μM ionomycin to this solution (hereinafter also referred to as “Krebs/Iono(+)”) was used as a positive control for ATP secretion. Ionomycin is a Ca^2+ ionophore. Addition of ionomycin to cells is known to promote influx of extracellular Ca^2+ into the cells to increase the intracellular Ca^2+ concentration, resulting in enhancement of ATP secretion. Test solutions were prepared by adding clodronate to Krebs/Iono(−) or Krebs/Iono(+) to a final concentration of 0.1 μM (hereinafter also referred to as “Clo/Iono(−)” or “Clo/Iono(+)”, respectively) (N=3).
Keratinocytes were cultured at 2.5×10^4 cells/well in a 24-well plate at 37° C. in 5% CO2 for 4 days. The medium was removed by aspiration, replaced with Krebs/Iono(−) or Clo/Iono(−), and incubated at 37° C. for 6 hours. These solutions were then removed by aspiration, and the content of each well incubated with Krebs/Iono(−) was replaced with 300 μl of a control solution (Krebs/Iono(−) or Krebs/Iono(+)), while the content of each well incubated with Clo/Iono(−) was replaced with 300 μl of a test solution (Clo/Iono(−) or Clo/Iono(+)). After further incubation at 37° C. for 20 minutes, 200 μl of the supernatant was collected. The collected supernatant was immediately treated on a heat block at 95° C. for 10 minutes, to inactivate ectonucleotidase. ATP in the supernatant was quantified using a Dojindo ATP assay kit−Luminescence (manufactured by Dojindo Laboratories).
Keratinocytes were cultured in the same manner as in Example 1, and ATP secretion from the keratinocytes was measured. Krebs/Iono(−), or a solution prepared by adding 10 μM imeglimin, 0.1 μM eicosapentaenoic acid (EPA), 1 μM EPA, or 10 μM clodronate to Krebs/Iono(−) was used (N=4).
After culturing keratinocytes, the medium was removed by aspiration, and replaced with Krebs/Iono(−), or Krebs/Iono(−) supplemented with 10 μM imeglimin, 0.1 μM EPA, 1 μM EPA, or 10 μM clodronate, followed by incubation for 6 hours. Subsequently, the solution was replaced with either a control solution (Krebs/Iono(−) or Krebs/Iono(+)) or a test solution (Krebs/Iono(+) supplemented with 10 μM imeglimin, 0.1 μM EPA, 1 μM EPA, or 10 μM clodronate), followed by incubation at 37° C. for 20 minutes and then collection of 200 μl of the supernatant. The collected supernatant was immediately treated on a heat block at 95° C. for 10 minutes to inactivate ectonucleotidase. ATP in the supernatant was quantified using a Dojindo ATP assay kit—Luminescence (manufactured by Dojindo Laboratories). […]

[3] = topical 0.1% (w/v) in 20% glycerin solution after imiquimod
[4] = topical 1% (w/v) in 20% glycerin solution after imiquimod

`C[C@@H]1N=C(N)NC(N(C)C)=N1` [imeglimin] was tested, and the “degree of auricular thickening” value (mouse auricle; [3]) was “no effect”, the “concentration dependence of effect on auricular thickening” value (mouse auricle; topical 0.1% and 1% (w/v)) was “concentration-dependent” and the “auricular thickness compared with imiquimod-treated VNUT knockout mice” value (mouse auricle; topical 1% (w/v)) was “about the same”. The “degree of auricular thickening” value (mouse auricle; [4]) was “improved”, the “LPS-induced ATP secretion from macrophages” value [1] was “strongly inhibited” and the “ATP secretion inhibitory effect at low concentration” value ([2]; 0.1 μM, 6 h preincubation, ionomycin) was “exhibit an ATP secretion inhibitory effect”. The “ATP secretion level relative to control solution (RLU ratio)” value ([2]; incubation time 2 hours, ionomycin) was “about 85%”, the “ATP secretion level relative to control solution (RLU ratio)” value ([2]; incubation time 6 hours, ionomycin) was “about 40%” and the “ATP secretion inhibitory effect, comparison” value ([2]; 10 μM imeglimin vs 1 μM EPA and 10 μM clodronate) was “comparable to those of 1 μM EPA and 10 μM clodronate”. The “ATP secretion inhibitory effect relative to metformin” value ([2]; 0.1, 1, 10 μM, 6 h preincubation, N=3 (FIG. 3)) was “slightly higher ATP secretion inhibitory effect than metformin”.
In the case of `O=P(O)(O)C(Cl)(Cl)P(=O)(O)O` [clodronate], the “auricular thickness compared with imiquimod-treated VNUT knockout mice” value (mouse auricle; topical 0.1% (w/v)) is reported as “about the same”, the “degree of auricular thickening” value (mouse auricle; [3]) is reported as “improved” and the “auricular thickness compared with imiquimod-treated VNUT knockout mice” value (mouse auricle; topical 1% (w/v)) is reported as “about the same”. The “degree of auricular thickening” value (mouse auricle; [4]) was “improved”, the “LPS-induced ATP secretion from macrophages” value [1] was “strongly inhibited” and the “ATP secretion level promoted by ionomycin” value ([2]; 0.1 μM clodronate, 6 h preincubation, 5 μM ionomycin, N=3 (FIG. 1)) was “almost the same as those in Krebs/Iono(−) and Clo/Iono(−)”.
With `C=C(OP(=O)(O)O)C(=O)O` [PEP, phosphoenolpyruvic acid] the “ATP secretion inhibitory effect” value ([2]; PEP at not less than 3 mM (data not shown)) was “relatively strong ATP secretion inhibitory effect”.
